Reference: the NIST ThermoML archive (doi:10.1007/s10765-005-5566-6)

Experiment: xn = mol fraction of the nth substance listed
Conditions: Gas, Hot wire method

C [methane] + O=C=O
Conditions	thermal conductivity [W/m/K]
300 K, 724 kPa, x1 = 0.2493	0.02096
300 K, 727 kPa, x1 = 0.4994	0.02533
300 K, 730 kPa, x1 = 0.7496	0.03005
300 K, 1240 kPa, x1 = 0.7496	0.03027
300 K, 1241 kPa, x1 = 0.4994	0.02556
300 K, 1288 kPa, x1 = 0.2493	0.02125
300 K, 1748 kPa, x1 = 0.4994	0.02584
300 K, 1770 kPa, x1 = 0.7496	0.03051
300 K, 1835 kPa, x1 = 0.2493	0.02161
300 K, 2212 kPa, x1 = 0.4994	0.02613
300 K, 2245 kPa, x1 = 0.7496	0.03082
300 K, 2335 kPa, x1 = 0.2493	0.02197
300 K, 2700 kPa, x1 = 0.4994	0.02637
300 K, 2740 kPa, x1 = 0.7496	0.03109
300 K, 2820 kPa, x1 = 0.2493	0.02245
300 K, 3118 kPa, x1 = 0.4994	0.02681
300 K, 3220 kPa, x1 = 0.7496	0.03153
300 K, 3275 kPa, x1 = 0.2493	0.02287
300 K, 3550 kPa, x1 = 0.4994	0.02726
300 K, 3680 kPa, x1 = 0.7496	0.03188
300 K, 3730 kPa, x1 = 0.2493	0.02338
300 K, 4160 kPa, x1 = 0.2493	0.02399
300 K, 4160 kPa, x1 = 0.7496	0.03236
300 K, 4550 kPa, x1 = 0.2493	0.02452
300 K, 4560 kPa, x1 = 0.7496	0.03271
300 K, 4660 kPa, x1 = 0.4994	0.02839
300 K, 4920 kPa, x1 = 0.2493	0.0252
300 K, 5000 kPa, x1 = 0.7496	0.03324
300 K, 5670 kPa, x1 = 0.4994	0.02959
300 K, 6570 kPa, x1 = 0.4994	0.03101
325 K, 793 kPa, x1 = 0.2493	0.0234
325 K, 797 kPa, x1 = 0.7496	0.03345
325 K, 800 kPa, x1 = 0.4994	0.02831
325 K, 1350 kPa, x1 = 0.4994	0.02846
325 K, 1358 kPa, x1 = 0.7496	0.03366
325 K, 1420 kPa, x1 = 0.2493	0.02367
325 K, 1896 kPa, x1 = 0.4994	0.02871
325 K, 1920 kPa, x1 = 0.7496	0.0339
325 K, 2020 kPa, x1 = 0.2493	0.02398
325 K, 2434 kPa, x1 = 0.4994	0.02901
325 K, 2465 kPa, x1 = 0.7496	0.0342
325 K, 2600 kPa, x1 = 0.2493	0.02439
325 K, 2970 kPa, x1 = 0.4994	0.02933
325 K, 3020 kPa, x1 = 0.7496	0.0345
325 K, 3160 kPa, x1 = 0.2493	0.02478
325 K, 3440 kPa, x1 = 0.4994	0.02963
325 K, 3520 kPa, x1 = 0.7496	0.03477
325 K, 3685 kPa, x1 = 0.2493	0.02519
325 K, 3920 kPa, x1 = 0.4994	0.02999
325 K, 4040 kPa, x1 = 0.7496	0.03529
325 K, 4210 kPa, x1 = 0.2493	0.02561
325 K, 4555 kPa, x1 = 0.7496	0.03559
325 K, 4690 kPa, x1 = 0.2493	0.02615
325 K, 5040 kPa, x1 = 0.7496	0.03603
325 K, 5170 kPa, x1 = 0.2493	0.02675
325 K, 5200 kPa, x1 = 0.4994	0.03111
325 K, 5560 kPa, x1 = 0.7496	0.03638
325 K, 5625 kPa, x1 = 0.2493	0.02733
325 K, 6380 kPa, x1 = 0.4994	0.03222
325 K, 7500 kPa, x1 = 0.4994	0.03379
350 K, 860 kPa, x1 = 0.2493	0.026
350 K, 862 kPa, x1 = 0.7496	0.03707
350 K, 865 kPa, x1 = 0.4994	0.03135
350 K, 1310 kPa, x1 = 0.2493	0.02615
350 K, 1464 kPa, x1 = 0.4994	0.03154
350 K, 1605 kPa, x1 = 0.7496	0.03738
350 K, 1750 kPa, x1 = 0.2493	0.02631
350 K, 2054 kPa, x1 = 0.4994	0.03177
350 K, 2180 kPa, x1 = 0.2493	0.02656
350 K, 2340 kPa, x1 = 0.7496	0.03766
350 K, 2610 kPa, x1 = 0.2493	0.02669
350 K, 2660 kPa, x1 = 0.4994	0.03206
350 K, 3020 kPa, x1 = 0.2493	0.02694
350 K, 3035 kPa, x1 = 0.7496	0.03796
350 K, 3190 kPa, x1 = 0.4994	0.03224
350 K, 3440 kPa, x1 = 0.2493	0.02718
350 K, 3740 kPa, x1 = 0.7496	0.03813
350 K, 3760 kPa, x1 = 0.4994	0.03258
350 K, 3840 kPa, x1 = 0.2493	0.02747
350 K, 4220 kPa, x1 = 0.2493	0.02766
350 K, 4324 kPa, x1 = 0.4994	0.03282
350 K, 4410 kPa, x1 = 0.7496	0.03855
350 K, 4600 kPa, x1 = 0.2493	0.02799
350 K, 5140 kPa, x1 = 0.7496	0.039
350 K, 5145 kPa, x1 = 0.4994	0.03347
350 K, 5860 kPa, x1 = 0.7496	0.03958
350 K, 5920 kPa, x1 = 0.4994	0.03401
350 K, 6410 kPa, x1 = 0.7496	0.03989
350 K, 6670 kPa, x1 = 0.4994	0.03477
350 K, 7080 kPa, x1 = 0.7496	0.04053
